“And” between values parts separate entries of the source, which are not always exact repeats. Identical values can stand only once.
How the values were obtained:
Type in all cases: cell-based
Conditions in all cases: for clearance: 1 min uptake, 0.1 μmol/l radiotracer
[1] = target: T1, OAT2h (Homo sapiens, UniProt Q9Y694); assay: 1 min uptake into 293 cells expressing OAT2 from human
T1 construct: expressed in transfected cells; host or cells: 293 cells (HEK-293), pEBTetD/OAT2h, doxycycline-inducible
T1 sequence (Q9Y694 1-546 isoform Q9Y694-2): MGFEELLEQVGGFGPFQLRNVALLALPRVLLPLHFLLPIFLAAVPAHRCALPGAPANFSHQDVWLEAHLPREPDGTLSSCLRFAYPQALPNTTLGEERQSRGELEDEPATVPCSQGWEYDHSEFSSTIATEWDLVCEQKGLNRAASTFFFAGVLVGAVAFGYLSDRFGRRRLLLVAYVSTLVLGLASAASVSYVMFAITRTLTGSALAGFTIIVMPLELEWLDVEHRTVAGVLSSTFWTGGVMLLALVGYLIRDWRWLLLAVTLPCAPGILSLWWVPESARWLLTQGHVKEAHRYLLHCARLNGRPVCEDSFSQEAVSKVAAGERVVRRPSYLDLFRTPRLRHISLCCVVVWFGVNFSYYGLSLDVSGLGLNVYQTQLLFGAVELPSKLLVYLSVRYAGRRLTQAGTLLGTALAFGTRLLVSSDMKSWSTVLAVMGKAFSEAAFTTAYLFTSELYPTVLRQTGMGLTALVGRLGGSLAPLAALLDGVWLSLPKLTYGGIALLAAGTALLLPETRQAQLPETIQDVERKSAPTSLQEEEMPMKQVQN
Experimental: Cells were used for uptake experiments at a confluence of at least 70%. Uptake was measured at 37° C. […] After preincubation for at least 20 minutes in 4 ml of uptake buffer, the buffer was replaced with 2 ml of substrate in uptake buffer. The total substrate concentration if not indicated otherwise was 0.1 μmol/l for radiotracer assays and 10 μmol/l for unlabeled compounds. Incubation was stopped after 1 min by rinsing the cells four times each with 4 ml ice-cold uptake buffer. Radioactivity was determined, after cell lysis with 0.1% v/v Triton X-100 in 5 mmol/l TRIS-HCl pH 7.4, by liquid scintillation counting. For LCelectrospray ionization-MS/MS analysis, cells were lysed with methanol and stored at −20° C.
After centrifugation (1 min, 16000×g, 20° C.) of thawed lysates, 100 μl of the supernatant was mixed with either 10 μl unlabeled MPP+ iodide (0.5 ng/μl) or biphenyl-4-carboxylic acid (Sigma-Aldrich) as internal standard. […] Atmospheric pressure ionization with positive or negative electrospray was used. For quantification (scan time 150 ms), the optimal collision energy for argon-induced fragmentation in the second quadrupole was determined for each analyte. […] Linear calibration curves were constructed from at least six standards which were prepared using control cell lysates as solvent. Sample analyte content was calculated from the analyte response ratio and the slope of the calibration curve, obtained by linear regression. With LC-MS quantitation, solute content of cell lysates was determined for 4 conditions (paired dishes, incubation time 1 min): a) transporter expression on, uptake buffer; b) expression off, uptake buffer; c) expression on, substrate in uptake buffer; d) expression off, substrate in uptake buffer. Acute uptake mediated by heterologously expressed carrier was then calculated as (c−a)−(d−b). This approach takes into account endogenous solute content and non-specific uptake. Protein was measured by the BCA assay (Pierce) with bovine serum albumin as standard. The protein content of MS samples was estimated from 3 matched cell dishes.

[2] = target: T2, OAT1h (Homo sapiens, UniProt Q4U2R8); assay: uptake/accumulation in 293 cells expressing OAT1h
T2 construct: expressed in transfected cells; host or cells: 293 cells (HEK-293), pEBTetD plasmid, doxycycline-inducible
T2 sequence (Q4U2R8 1-550 isoform Q4U2R8-2): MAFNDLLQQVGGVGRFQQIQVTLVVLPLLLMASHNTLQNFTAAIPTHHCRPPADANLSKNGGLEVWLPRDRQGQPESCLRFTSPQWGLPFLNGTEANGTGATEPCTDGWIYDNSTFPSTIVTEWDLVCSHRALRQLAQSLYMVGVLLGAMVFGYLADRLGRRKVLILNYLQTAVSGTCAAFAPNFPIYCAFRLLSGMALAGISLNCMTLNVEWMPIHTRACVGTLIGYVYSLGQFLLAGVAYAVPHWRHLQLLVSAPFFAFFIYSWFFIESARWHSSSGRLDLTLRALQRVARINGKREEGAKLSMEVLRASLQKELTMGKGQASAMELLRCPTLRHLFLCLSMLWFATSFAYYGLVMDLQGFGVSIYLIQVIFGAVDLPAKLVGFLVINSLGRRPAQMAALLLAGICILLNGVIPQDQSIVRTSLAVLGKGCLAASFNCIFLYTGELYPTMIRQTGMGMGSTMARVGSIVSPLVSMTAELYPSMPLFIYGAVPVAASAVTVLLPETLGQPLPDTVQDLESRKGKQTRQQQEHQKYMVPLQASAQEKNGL
Experimental: (§1) The trigonelline content of cell lysates was determined by LC-MS/MS. […] 293 cells transfected with pEBTetD plasmids for the expression of SLC22 family carriers as indicated were grown in dishes and incubated overnight with (expression on) or without (off) doxycyclin in standard culture medium. Cells were washed with uptake buffer, incubated (1 min, 37° C.) in uptake buffer with or without 10 μmol/l unlabeled trigonelline, washed, and lysed.
(§2) For measurement of solute uptake, cells were grown in surface culture on 60 mm polystyrol dishes (Nunclon 150288, Nunc, Roskilde, Denmark) precoated with 0.1 g/l poly-L-ornithine in 0.15 M boric acid-NaOH, pH 8.4. Cells were used for uptake experiments at a confluence of at least 70%. Uptake was measured at 37° C. Uptake buffer contains 125 mmol/l NaCl, 25 mmol/l HEPES-NaOH pH 7.4, 5.6 mmol/l (+)glucose, 4.8 mmol/l KCl, 1.2 mmol/l KH2PO4, 1.2 mmol/l CaCl2, and 1.2 mmol/l MgSO4. In glutamate efflux experiments, uptake buffer without KH2PO4 was used to avoid MS interference. After preincubation for at least 20 minutes in 4 ml of uptake buffer, the buffer was replaced with 2 ml of substrate in uptake buffer. The total substrate concentration if not indicated otherwise was 0.1 μmol/l for radiotracer assays and 10 μmol/l for unlabeled compounds. Incubation was stopped after 1 min by rinsing the cells four times each with 4 ml ice-cold uptake buffer. Radioactivity was determined, after cell lysis with 0.1% v/v Triton X-100 in 5 mmol/l TRIS-HCl pH 7.4, by liquid scintillation counting. For LCelectrospray ionization-MS/MS analysis, cells were lysed with methanol and stored at −20° C.
(§3) After centrifugation (1 min, 16000×g, 20° C.) of thawed lysates, 100 μl of the supernatant was mixed with either 10 μl unlabeled MPP+ iodide (0.5 ng/μl) or biphenyl-4-carboxylic acid (Sigma-Aldrich) as internal standard. Of this mixture, […] were analyzed by LCMS/MS on a triple quadrupole mass spectrometer (4000 Q TRAP, Applied Biosystems, Darmstadt, Germany). […] For quantification (scan time 150 ms), the optimal collision energy for argon-induced fragmentation in the second quadrupole was determined for each analyte. […] Sample analyte content was calculated from the analyte response ratio and the slope of the calibration curve, obtained by linear regression. With LC-MS quantitation, solute content of cell lysates was determined for 4 conditions (paired dishes, incubation time 1 min): a) transporter expression on, uptake buffer; b) expression off, uptake buffer; c) expression on, substrate in uptake buffer; d) expression off, substrate in uptake buffer. Acute uptake mediated by heterologously expressed carrier was then calculated as (c−a)−(d−b). […] Protein was measured by the BCA assay (Pierce) with bovine serum albumin as standard. […]

[3] = target: T3, SLC22A13h (Homo sapiens, UniProt Q9Y226); assay: uptake/accumulation in 293 cells expressing SLC22A13h
T3 construct: expressed in transfected cells; host or cells: 293 cells (HEK-293), pEBTetD plasmid, doxycycline-inducible
T3 sequence (Q9Y226 whole entry): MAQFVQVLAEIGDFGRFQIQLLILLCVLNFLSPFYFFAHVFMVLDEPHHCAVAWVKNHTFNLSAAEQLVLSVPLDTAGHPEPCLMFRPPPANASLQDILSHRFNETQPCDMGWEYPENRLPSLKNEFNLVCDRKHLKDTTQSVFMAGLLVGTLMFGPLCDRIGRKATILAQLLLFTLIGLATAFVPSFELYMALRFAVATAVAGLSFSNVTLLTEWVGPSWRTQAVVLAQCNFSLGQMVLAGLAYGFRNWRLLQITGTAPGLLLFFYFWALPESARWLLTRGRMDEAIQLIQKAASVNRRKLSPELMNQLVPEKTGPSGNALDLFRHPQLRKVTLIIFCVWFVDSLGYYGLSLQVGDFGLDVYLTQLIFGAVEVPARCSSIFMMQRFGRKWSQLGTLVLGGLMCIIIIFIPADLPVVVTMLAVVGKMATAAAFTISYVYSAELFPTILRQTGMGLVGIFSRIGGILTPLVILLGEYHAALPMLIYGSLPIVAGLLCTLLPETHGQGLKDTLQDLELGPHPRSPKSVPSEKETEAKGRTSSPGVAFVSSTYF
Experimental: as §1, §2, §3

Row | Structure (SMILES) | clearance ([1]; sodium-free buffer) | Vmax ([1]; saturation of OAT2h-mediated specific uptake, 1 min, sodium-free buffer) | Km ([1]; saturation of uptake, sodium-free buffer, measured as uptake) | transport of glutamate (in words) [2] | clearance [2] | transport of glutamate (in words) [3] | clearance [3] | clearance ([1]; uptake buffer) | carrier-mediated clearance ([1]; initial rate 1 min, 37° C., 10 μmol/l, LC-MS/MS, uptake buffer in the expression period) | accumulation of trigonelline upon carrier expression (in words) ([2]; expression of OAT1 in 293 cells, FIG. 14) | accumulation of trigonelline upon carrier expression (in words) ([3]; expression of SLC22A13 in 293 cells, FIG. 14)
1 | N[C@@H](CCC(=O)O)C(=O)O [glutamate] | 70±5 μl min-1 mg protein-1 | 36±4 nmol min-1 mg protein-1 | 1100 µM | do not transport | 2.5±0.4 μl min-1 mg protein-1 | do not transport | 0.3±0.6 μl min-1 mg protein-1 | – | – | – | –
2 | O=C(O)c1cc(=O)[nH]c(=O)[nH]1 [orotic acid] | – | – | – | – | 1.6±0.1 μl min-1 mg protein-1 | – | 3.8±0.3 μl min-1 mg protein-1 | 46±1 μl min-1 mg protein-1 and 46 μl min-1 mg protein-1 | – | – | –
3 | C[n+]1cccc(C(=O)[O-])c1 [trigonelline] | – | – | – | – | – | – | – | – | 121±5 μl min-1 mg protein-1 | without effect | without effect

Reference: US20140090094A1, “MODULATORS OF SLC22A7” (BAYER INTELLECTUAL PROPERTY GmbH, priority 2011, published 2014)
